biological target: human GPR40 receptor (Homo sapiens, UniProt O14842); assay: Assay II: IP1 accumulation (IPOne HTRF) in 1321N1 cells stably expressing human GPR40; format: cell-based; settings: 1321N1 cells expressing human GPR40, stimulation 1 h at 37° C., 5% CO2, LiCl 50 mM
Procedure: IP1 accumulation measurements using the IPOne assay system—1321N1 cells stably expressing human GPR40 receptor (Euroscreen, Belgium) are seeded 24 h before the assay in white 384-well plates in culture medium containing 10% FCS, 1% Na-Pyruvate and 400 μg/mL G418. IP1 is assayed according to the manufacturers description (Cisbio Bioassays, France). In brief, the assay is started by substitution of the culture medium by stimulation buffer (Hepes 10 mM, CaCl2 1 mM, MgCl2 0.5 mM, KCl 4.2 mM, NaCl 146 mM, glucose 5.5 mM and LiCl 50 mM, pH 7.4). Cells are stimulated for 1 h at 37° C., 5% CO2 by addition of the compounds that are diluted in stimulation buffer containing LiCl. Assays are stopped by adding HTRF-conjugates (IP1-d2 and Anti-IP1 cryptate Tb) and lysis buffer, provided by the manufacturer. After an incubation time of 1 h at room temperature plates are measured using an EnVision™, Perkin Elmer. The obtained fluorescence ratios at 665/615 nM are then used to calculate the pEC50 values using Assay Explorer 3.3 Software (Accelrys, Inc.) by interpolation using an IP1 reference curve and subsequent sigmoidal curve fitting allowing for a variable hill slope.

Chain of human GPR40 receptor (O14842 whole entry): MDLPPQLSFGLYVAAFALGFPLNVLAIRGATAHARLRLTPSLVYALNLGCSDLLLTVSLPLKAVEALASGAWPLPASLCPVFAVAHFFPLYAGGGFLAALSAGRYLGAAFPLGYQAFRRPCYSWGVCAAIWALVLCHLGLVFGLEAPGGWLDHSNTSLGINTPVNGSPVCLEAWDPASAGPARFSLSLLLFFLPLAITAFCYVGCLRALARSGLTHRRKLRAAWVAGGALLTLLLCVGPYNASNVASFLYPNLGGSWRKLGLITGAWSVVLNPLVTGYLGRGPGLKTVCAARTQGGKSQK

SMILES	EC50 [nM]
Cc1cc(OC[C@@H]2CCS(=O)(=O)C2)cc(C)c1-c1ccc(F)c2c1CC[C@H]2Oc1ccc2c(c1)OC[C@H]2CC(=O)O (single isomer, unassigned) [Example 46]	7
Cc1cc(OC2CCC(C)(O)C2)cc(C)c1-c1ccc(F)c2c1CC[C@H]2Oc1ccc2c(c1)OC[C@H]2CC(=O)O (single isomer, unassigned) [Example 78]	4
Cc1cc(OC2CCC(C)(O)C2)cc(C)c1-c1ccc(F)c2c1CC[C@H]2Oc1ccc2c(c1)OC[C@H]2CC(=O)O (single isomer, unassigned) [Example 79]	5
Cc1cc(OC[C@@H](C)CS(C)(=O)=O)cc(C)c1-c1ccc(F)c2c1CC[C@H]2Oc1ccc2c(c1)OC[C@H]2CC(=O)O [Example 36, ((S)-6-{(R)-7-Fluoro-4-[4-((R)-3-methanesulfonyl-2-methyl-propoxy)-2,6-dimethyl-phenyl]-indan-1-yloxy}-2,3-dihydro-benzofuran-3-yl)-acetic acid]	8
Cc1cc(OC[C@H](C)CS(C)(=O)=O)cc(C)c1-c1ccc(F)c2c1CC[C@H]2Oc1ccc2c(c1)OC[C@H]2CC(=O)O [Example 37, ((S)-6-{(R)-7-Fluoro-4-[4-((S)-3-methanesulfonyl-2-methyl-propoxy)-2,6-dimethyl-phenyl]-indan-1-yloxy}-2,3-dihydro-benzofuran-3-yl)-acetic acid]	6
Cc1cc(OCCN2CCCS2(=O)=O)cc(C)c1-c1ccc(F)c2c1CC[C@H]2Oc1ccc2c(c1)OC[C@H]2CC(=O)O [Example 40]	13
Cc1cc(OC2CCS(=O)(=O)NC2)cc(C)c1-c1ccc(F)c2c1CC[C@H]2Oc1ccc2c(c1)OC[C@H]2CC(=O)O (stereo partly drawn) [Example 41, ((S)-6-{(R)-4-[4-(1,1-Dioxo-1-[1,2]thiazinan-4-yloxy)-2,6-dimethyl-phenyl]-7-fluoro-indan-1-yloxy}-2,3-dihydro-benzofuran-3-yl)-acetic acid]	18
Cc1cc(OC2CCS(=O)(=O)N(C)C2)cc(C)c1-c1ccc(F)c2c1CC[C@H]2Oc1ccc2c(c1)OC[C@H]2CC(=O)O (stereo partly drawn) [Example 42, ((S)-6-{(R)-4-[2,6-Dimethyl-4-(2-methyl-1,1-dioxo-1-[1,2]thiazinan-4-yloxy)-phenyl]-7-fluoro-indan-1-yloxy}-2,3-dihydro-benzofuran-3-yl)-acetic acid]	11
Cc1cc(OCCCCS(C)(=O)=O)cc(C)c1-c1ccc(F)c2c1CC[C@H]2Oc1ccc2c(c1)OC[C@H]2CC(=O)O [Example 43, ((S)-6-{(R)-7-Fluoro-4-[4-(4-methanesulfonyl-butoxy)-2,6-dimethyl-phenyl]-indan-1-yloxy}-2,3-dihydro-benzofuran-3-yl)-acetic acid]	22
Cc1cc(O[C@@H]2CCN(S(C)(=O)=O)C2)cc(C)c1-c1ccc(F)c2c1CC[C@H]2Oc1ccc2c(c1)OC[C@H]2CC(=O)O [Example 44, ((S)-6-{(R)-7-Fluoro-4-[4-((R)-1-methanesulfonyl-pyrrolidin-3-yloxy)-2,6-dimethyl-phenyl]-indan-1-yloxy}-2,3-dihydro-benzofuran-3-yl)-acetic acid]	17
Cc1cc(OCC(C)(C)S(C)(=O)=O)cc(C)c1-c1ccc(F)c2c1CC[C@H]2Oc1ccc2c(c1)OC[C@H]2CC(=O)O [Example 45, ((S)-6-{(R)-7-Fluoro-4-[4-(2-methanesulfonyl-2-methyl-propoxy)-2,6-dimethyl-phenyl]-indan-1-yloxy}-2,3-dihydro-benzofuran-3-yl)-acetic acid]	9
Cc1cc(OC2CCN(S(C)(=O)=O)CC2)cc(C)c1-c1ccc(F)c2c1CC[C@H]2Oc1ccc2c(c1)OC[C@H]2CC(=O)O [Example 48, ((S)-6-{(R)-7-Fluoro-4-[4-(1-methanesulfonyl-piperidin-4-yloxy)-2,6-dimethyl-phenyl]-indan-1-yloxy}-2,3-dihydro-benzofuran-3-yl)-acetic acid]	14
Cc1cc(O[C@@H]2CCCN(S(C)(=O)=O)C2)cc(C)c1-c1ccc(F)c2c1CC[C@H]2Oc1ccc2c(c1)OC[C@H]2CC(=O)O [Example 49, ((S)-6-{(R)-7-Fluoro-4-[4-((R)-1-methanesulfonyl-piperidin-3-yloxy)-2,6-dimethyl-phenyl]-indan-1-yloxy}-2,3-dihydro-benzofuran-3-yl)-acetic acid]	10
Cc1cc(O[C@H]2CCCN(S(C)(=O)=O)C2)cc(C)c1-c1ccc(F)c2c1CC[C@H]2Oc1ccc2c(c1)OC[C@H]2CC(=O)O [Example 50, ((S)-6-{(R)-7-Fluoro-4-[4-((S)-1-methanesulfonyl-piperidin-3-yloxy)-2,6-dimethyl-phenyl]-indan-1-yloxy}-2,3-dihydro-benzofuran-3-yl)-acetic acid]	20
Cc1cc(OCC2CCCS(=O)(=O)C2)cc(C)c1-c1ccc(F)c2c1CC[C@H]2Oc1ccc2c(c1)OC[C@H]2CC(=O)O (stereo partly drawn) [Example 51, ((S)-6-{(R)-4-[4-(1,1-Dioxo-hexahydro-1-thiopyran-3-ylmethoxy)-2,6-dimethyl-phenyl]-7-fluoro-indan-1-yloxy}-2,3-dihydro-benzofuran-3-yl)-acetic acid]	7
Cc1cc(C(=O)NCC(C)(C)O)cc(C)c1-c1ccc(F)c2c1CC[C@H]2Oc1ccc2c(c1)OC[C@H]2CC(=O)O [Example 54, ((S)-6-{(R)-7-Fluoro-4-[4-(2-hydroxy-2-methyl-propylcarbamoyl)-2,6-dimethyl-phenyl]-indan-1-yloxy}-2,3-dihydro-benzofuran-3-yl)-acetic acid]	13
Cc1cc(OC(C)(C)CO)cc(C)c1-c1ccc(F)c2c1CC[C@H]2Oc1ccc2c(c1)OC[C@H]2CC(=O)O [Example 55, ((S)-6-{(R)-7-Fluoro-4-[4-(2-hydroxy-1,1-dimethyl-ethoxy)-2,6-dimethyl-phenyl]-indan-1-yloxy}-2,3-dihydro-benzofuran-3-yl)-acetic acid]	25
Cc1cc(OC(C)(C)C(N)=O)cc(C)c1-c1ccc(F)c2c1CC[C@H]2Oc1ccc2c(c1)OC[C@H]2CC(=O)O [Example 56, ((S)-6-{(R)-4-[4-(1-Carbamoyl-1-methyl-ethoxy)-2,6-dimethyl-phenyl]-7-fluoro-indan-1-yloxy}-2,3-dihydro-benzofuran-3-yl)-acetic acid]	43
Cc1cc(OCC(C)(C)C#N)cc(C)c1-c1ccc(F)c2c1CC[C@H]2Oc1ccc2c(c1)OC[C@H]2CC(=O)O [Example 64, 2-((S)-6-((R)-4-(4-(2-Cyano-2-methylpropoxy)-2,6-dimethylphenyl)-7-fluoro-2,3-dihydro-1H-inden-1-yloxy)-2,3-dihydrobenzofuran-3-yl)acetic acid]	8
Cc1cc(OCC2(O)CCOCC2)cc(C)c1-c1ccc(F)c2c1CC[C@H]2Oc1ccc2c(c1)OC[C@H]2CC(=O)O [Example 66, 2-((S)-6-((R)-7-Fluoro-4-(4-((4-hydroxytetrahydro-2H-pyran-4-yl)methoxy)-2,6-dimethylphenyl)-2,3-dihydro-1H-inden-1-yloxy)-2,3-dihydrobenzofuran-3-yl)acetic acid]	5
Cc1cc(CCC(C)(C)O)cc(C)c1-c1ccc(F)c2c1CC[C@H]2Oc1ccc2c(c1)OC[C@H]2CC(=O)O [Example 67, 2-((S)-6-((R)-7-Fluoro-4-(4-(3-hydroxy-3-methylbutyl)-2,6-dimethylphenyl)-2,3-dihydro-1H-inden-1-yloxy)-2,3-dihydrobenzofuran-3-yl)acetic acid]	7
Cc1cc(OCC2(O)CCSCC2)cc(C)c1-c1ccc(F)c2c1CC[C@H]2Oc1ccc2c(c1)OC[C@H]2CC(=O)O [Example 68, 2-((S)-6-((R)-7-Fluoro-4-(4-((4-hydroxytetrahydro-2H-thiopyran-4-yl)methoxy)-2,6-dimethylphenyl)-2,3-dihydro-1H-inden-1-yloxy)-2,3-dihydrobenzofuran-3-yl)acetic acid]	10
Cc1cc(OCC2(O)CCS(=O)(=O)CC2)cc(C)c1-c1ccc(F)c2c1CC[C@H]2Oc1ccc2c(c1)OC[C@H]2CC(=O)O [Example 69, 2-((S)-6-((R)-7-Fluoro-4-(4-((1,1-dioxo-4-hydroxytetrahydro-2H-thiopyran-4-yl)methoxy)-2,6-dimethylphenyl)-2,3-dihydro-1H-inden-1-yloxy)-2,3-dihydrobenzofuran-3-yl)acetic acid]	8
Cc1cc(CCCS(C)(=O)=O)cc(C)c1-c1ccc(F)c2c1CC[C@H]2Oc1ccc2c(c1)OC[C@H]2CC(=O)O [Example 70, 2-((S)-6-((R)-4-(2,6-Dimethyl-4-(3-(methylsulfonyl)propyl)phenyl)-7-fluoro-2,3-dihydro-1H-inden-1-yloxy)-2,3-dihydrobenzofuran-3-yl)acetic acid]	60
Cc1cc(OCCNS(C)(=O)=O)cc(C)c1-c1ccc(F)c2c1CC[C@H]2Oc1ccc2c(c1)OC[C@H]2CC(=O)O [Example 71, 2-((S)-6-((R)-4-(2,6-Dimethyl-4-(2-(methylsulfonamido)ethoxy)phenyl)-7-fluoro-2,3-dihydro-1H-inden-1-yloxy)-2,3-dihydrobenzofuran-3-yl)acetic acid]	28
CC(=O)NCCc1cc(C)c(-c2ccc(F)c3c2CC[C@H]3Oc2ccc3c(c2)OC[C@H]3CC(=O)O)c(C)c1 [Example 72, 2-((S)-6-((R)-4-(4-(2-Acetamidoethyl)-2,6-dimethylphenyl)-7-fluoro-2,3-dihydro-1H-inden-1-yloxy)-2,3-dihydrobenzofuran-3-yl)acetic acid]	23
